Results reported in ChEMBL document CHEMBL5223128, “Biphenyl-based small molecule inhibitors: Novel cancer immunotherapeutic agents targeting PD-1/PD-L1 interaction” (Bioorg Med Chem, 2022).

Legend:
[1] = biological target: T1, Programmed cell death protein 1/Programmed cell death 1 ligand 1 (Homo sapiens, UniProt Q9NZQ7); experiment: Inhibition of human PD-1/PDL1 protein-protein interaction by HTRF assay; type: protein-complex assay
[2] = biological target: Programmed cell death protein 1 (Homo sapiens, UniProt Q15116); experiment: Binding affinity to human PD-1 assessed as dissociation constant by SPR assay
[3] = biological target: T1, Programmed cell death protein 1/Programmed cell death 1 ligand 1; experiment: Inhibition of human PD-1/PDL1 protein-protein interaction; type: protein-complex assay
[4] = biological target: Programmed cell death 1 ligand 1 (Homo sapiens, UniProt Q9NZQ7); experiment: Binding affinity to human PDL1 assessed as dissociation constant by MST method
[5] = biological target: T1, Programmed cell death protein 1/Programmed cell death 1 ligand 1; experiment: Inhibition of human PD-1/PDL1 protein-protein interaction by luminescence proximity homogeneous assay; type: protein-complex assay

T1 sequence (Q15116 whole entry): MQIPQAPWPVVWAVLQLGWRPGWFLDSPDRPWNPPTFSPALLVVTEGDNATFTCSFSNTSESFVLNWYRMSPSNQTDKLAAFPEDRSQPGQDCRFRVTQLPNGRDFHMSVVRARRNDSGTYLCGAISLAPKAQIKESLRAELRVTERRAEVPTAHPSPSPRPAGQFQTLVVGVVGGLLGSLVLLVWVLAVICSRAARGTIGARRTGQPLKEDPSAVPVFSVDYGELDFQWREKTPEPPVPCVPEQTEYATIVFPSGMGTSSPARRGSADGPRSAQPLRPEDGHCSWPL
T1 sequence (Q9NZQ7 whole entry): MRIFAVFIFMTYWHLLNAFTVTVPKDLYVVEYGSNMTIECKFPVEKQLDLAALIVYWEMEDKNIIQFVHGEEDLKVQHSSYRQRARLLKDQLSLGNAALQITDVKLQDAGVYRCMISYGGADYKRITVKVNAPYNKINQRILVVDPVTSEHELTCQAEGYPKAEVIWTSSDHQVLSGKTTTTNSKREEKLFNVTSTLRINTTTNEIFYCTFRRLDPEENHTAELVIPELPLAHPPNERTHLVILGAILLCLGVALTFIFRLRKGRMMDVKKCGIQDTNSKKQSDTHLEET
Chain of Programmed cell death protein 1 (Q15116 whole entry): as the sequence (Q15116 whole entry) above
Chain of Programmed cell death 1 ligand 1 (Q9NZQ7 whole entry): as the sequence (Q9NZQ7 whole entry) above

| Compound | IC50 [1] [nM] | also measured |
| --- | --- | --- |
| N#Cc1c(NC(=O)c2nc3c(s2)CNCC3)cccc1-c1ccc2c(c1)OCC2 | ≤ 100 |  |
| Cc1c(-c2ccccc2)cccc1-n1cc2c(n1)CNCC2 | ≤ 100 |  |
| Cc1cc(C(=O)Nc2cccc(-c3ccccc3)c2C)ncc1CNCCO | ≤ 10 |  |
| COc1cc2oc(-c3cccc(-c4ccccc4)c3C)nc2cc1CNCCO | ≤ 10 |  |
| N#Cc1c(NC(=O)c2ccc(CNCCO)cn2)cccc1-c1ccccc1 | ≤ 10 |  |
| Cc1c(-c2ccccc2)cccc1-c1nc2c(s1)CNCC2 | ≤ 100 |  |
| Cc1c(-c2ccccc2)cccc1-c1nc2cc(CNCCO)ccc2o1 | ≤ 10 |  |
| Cc1c(-c2ccccc2)cccc1-c1cn2nc(CNCCO)cnc2n1 | ≤ 100 |  |
| Cc1c(Nc2nccc3c(CN4CCCCC4C(=O)O)ccnc23)cccc1-c1ccccc1 (configuration not stated) | ≤ 10 |  |
| Cc1cc(C(=O)Nc2cccc(-c3ccccc3)c2C)ncc1CN1CCCC[C@H]1C(=O)O | ≤ 10 |  |
| N#Cc1c(NC(=O)c2nc3c(s2)CNCC3)cccc1-c1ccc2c(c1)OCCO2 | ≤ 100 |  |
| O=C(O)[C@@H](CO)NCc1cc(Cl)c(OCc2cccc(-c3ccccc3)c2Br)cc1OCc1ccc2nonc2c1 |  | Kd [2]: 3.34 nM |
| Cc1c(-c2ccccc2)cccc1-c1nc2c(o1)CNCC2 | ≤ 100 |  |
| Cc1c(-c2ccccc2)cccc1-c1nc2cc(CN3CCCC[C@H]3C(=O)O)c(OCCCC#N)cc2o1 | ≤ 10 |  |
| Cc1c(NC(=O)c2nc3c(s2)CNCC3)cccc1-c1cccc2[nH]ncc12 | ≤ 100 |  |
| Cc1c(NC(=O)c2nc3c(s2)CNCC3)cccc1-c1cccc2c1cnn2C | ≤ 100 |  |
| COc1cc(OCc2cccc(-c3ccccc3)c2C)cc(OC)c1CCCC1CC(=O)N1 (configuration not stated) | 22 | IC50 [3]: 18 nM |
| Cc1c(NC(=O)c2nc3c(s2)CNCC3)cccc1-c1ccccc1 | ≤ 100 |  |
| Cc1c(C2=CCCCC2)cccc1-c1nc2c(s1)CNCC2 | ≤ 100 |  |
| Cn1c(C(=O)Nc2cccc(-c3ccc4c(c3)OCCO4)c2C#N)nc2c1CCNC2 | ≤ 100 |  |
| Cc1c(Nc2nccc3cc(CNCCO)cnc23)cccc1C1=CCCCC1 | ≤ 10 |  |
| Cc1c(-c2ccccc2)cccc1-c1nc2ccc(CNCCO)cn2n1 | ≤ 100 |  |
| COc1cccc(-c2cccc(NC(=O)c3nc4c(s3)CNCC4)c2C)c1F | ≤ 100 |  |
| N#Cc1c(NC(=O)c2nc3c(s2)CNCC3)cccc1C1=CCCCC1 | ≤ 100 |  |

| Compound | IC50 [1] [nM] | also measured |
| --- | --- | --- |
| Cn1cnc2c(-c3cccc(NC(=O)c4ccc(CNCCO)cn4)c3C#N)cccc21 | ≤ 10 |  |
| N#Cc1c(Nc2nccc3cc(CNCCO)cnc23)cccc1-c1ccccc1 | ≤ 10 |  |
| Cc1c(-c2ccccc2)cccc1-c1nc2c(o1)CCNC2 | ≤ 100 |  |
| Cc1c(NC(=O)c2nc3c(s2)CNCC3)cc(F)cc1-c1ccc2c(c1)OCCO2 | ≤ 100 |  |
| COc1cccc(-c2cccc(NC(=O)c3nc4c(s3)CNCC4)c2Cl)c1F | ≤ 100 |  |
| N#Cc1c(NC(=O)c2nc3c(s2)CNCC3)cccc1-c1c(F)cccc1F | ≤ 100 |  |
| CCOc1cccc(-c2cccc(-c3nc4c(s3)CNCC4)c2C)c1 | ≤ 100 |  |
| Cc1c(-c2ccccc2)cccc1N1C(=O)c2cc(CN[C@H](C(=O)O)C(C)O)c(OCc3cccc(C#N)c3)cc2C1=O (some centres not stated) |  | Kd [4]: 24.4 nM |
| Cc1c(COc2cc(OCc3ccc(OC(F)(F)F)cc3)c(N3CCCCC3C(=O)O)cc2Cl)cccc1-c1ccccc1 (configuration not stated) | 56.6 | IC50 [5]: 1500 nM |
| O=C(Nc1cccc(-c2ccc3c(c2)OCCO3)c1Cl)c1nc2c(s1)CNCC2 | ≤ 100 |  |
| Cc1c(-c2ccccc2)cccc1-c1nc2cc(CNCCO)c(OCC#N)cc2o1 | ≤ 10 |  |
| N#Cc1c(Nc2nccc3cc(CNCCO)cnc23)cccc1-c1ccc2c(c1)OCCO2 | ≤ 10 |  |
| Cc1c(-c2cccc(C(N)=O)c2)cccc1-c1nc2c(s1)CNCC2 | ≤ 100 |  |
| COc1cc(OC)c(F)c(-c2cccc(-c3nc4c(s3)CNCC4)c2C)c1F | ≤ 100 |  |
| Cc1c(-c2ccccc2)ccnc1-c1nc2c(s1)CNCC2 | ≤ 100 |  |
| Cc1c(-c2ccccc2)cccc1-c1nc2cc(CNCCO)c(OCCN3CCOCC3)cc2o1 | ≤ 10 |  |
| Cc1cc(C(=O)Nc2cc(F)cc(-c3ccc4c(c3)OCCO4)c2C)ncc1CNCCO | ≤ 10 |  |
| COc1cccc(-c2cccc(NC(=O)c3cn4c(n3)CNCC4)c2C#N)c1F | ≤ 100 |  |
| Cc1c(Nc2nccc3cc(CNCCO)cnc23)cccc1-c1ccc2c(c1)OCCO2 | ≤ 10 |  |
| N#Cc1c(NC(=O)c2nc3c(s2)CNCC3)cccc1-c1ccccc1 | ≤ 100 |  |
| N#Cc1c(Nc2nccc3nc(CNCCO)cnc23)cccc1C1=CCCCC1 | ≤ 10 |  |
| Cc1c(-c2ccccc2)cccc1-c1nc2cc(CNCCO)cc(C)c2o1 | ≤ 10 |  |
| Cc1c(NC(=O)c2nc3c(s2)CN(CC(=O)O)CC3)cccc1-c1ccccc1 | ≤ 100 |  |
| Cc1c(-c2ccc3c(c2)OCCO3)cccc1-c1nc2cc(CNCCO)cc(C)c2o1 | ≤ 10 |  |

| Compound | IC50 [1] [nM] | also measured |
| --- | --- | --- |
| Cn1ncc2c(-c3cccc(NC(=O)c4nc5c(s4)CNCC5)c3Cl)cccc21 | ≤ 100 |  |
| N#Cc1c(NC(=O)c2ccc(CNCCO)cn2)cccc1C1=CCCCC1 | ≤ 10 |  |
| N#Cc1c(-c2ccc3c(c2)OCCO3)cccc1-c1nc2c(Cl)cc(CNCCO)cn2n1 | ≤ 100 |  |
| N#Cc1c(NC(=O)c2ccc(CNCCO)cn2)cccc1-c1ccc2c(c1)OCCO2 | ≤ 10 |  |
| Cc1cc(CNCCO)cc2nc(-c3cccc(-c4ccc5c(c4)OCCO5)c3C#N)oc12 | ≤ 10 |  |
| N#CCc1cc(CNCCO)cn2nc(-c3cccc(-c4ccc5c(c4)OCCO5)c3C#N)nc12 | ≤ 100 |  |
| Cc1c(-c2ccccc2)cccc1-c1cn2cc(CNCCO)ncc2n1 | ≤ 100 |  |
| Cc1c(-c2ccccc2)cccc1-c1nc2c(s1)CN(CCCC(=O)O)CC2 | ≤ 100 |  |
| Cc1c(-c2ccccc2)cccc1-c1nc2c(s1)CN(CCO)CC2 | ≤ 100 |  |
| Cc1c(NC(=O)c2nc3c(s2)CNCC3)cccc1-c1ccc2c(c1)OCCO2 | ≤ 100 |  |
| COc1cccc(-c2ccnc(-c3nc4c(s3)CNCC4)c2C)c1 | ≤ 100 |  |
| COc1cccc(-c2cccc(NC(=O)c3nc4c(s3)CNCC4)c2C#N)c1F | ≤ 100 |  |
| N#Cc1c(-c2ccc3c(c2)OCCO3)cccc1-c1nc2c(C#N)cc(CNCCO)cn2n1 | ≤ 100 |  |
| COc1cccc(-c2cccc(-c3nc4c(s3)CNCC4)c2C)c1 | ≤ 100 |  |
| COc1cc(F)cc(-c2cccc(NC(=O)c3nc4c(s3)CNCC4)c2C#N)c1 | ≤ 100 |  |
| Cc1c(-c2ccc3c(c2)OCCO3)ccnc1-c1nc2c(s1)CNCC2 | ≤ 100 |  |
| Cc1c(-c2cccc(CC(N)=O)c2)cccc1-c1nc2c(s1)CNCC2 | ≤ 100 |  |
| Cn1c(C(=O)Nc2cccc(-c3ccc4c(c3)OCCO4)c2C#N)nc2c1CCN(CCO)C2 | ≤ 100 |  |
| O=C(Nc1cccc(-c2ccccc2)c1Cl)c1nc2c(s1)CNCC2 | ≤ 100 |  |
| Cc1c(-c2ccccc2)cccc1-c1nc2c(CCCC#N)cc(CNCCO)cn2n1 | ≤ 100 |  |
| COc1c(CNCCO)cnc2c(Nc3cccc(-c4ccccc4)c3C)nccc12 | ≤ 10 |  |
| N#Cc1c(NC(=O)c2nc3c(s2)CNCC3)cccc1-c1ccccc1F | ≤ 100 |  |
| Cc1c(Nc2nccc3cc(CNCCO)cnc23)cccc1-c1ccccc1 | ≤ 10 |  |
| Cc1c(-c2nc3cc(CNCCO)c(OCC#N)cc3o2)cccc1-c1ccccc1F | ≤ 10 |  |

| Compound | IC50 [1] [nM] | also measured |
| --- | --- | --- |
| COc1cccc(-c2cccc(NC(=O)c3nc4c(n3C)CCNC4)c2C)c1F | ≤ 100 |  |
| Cc1c(-c2ccccc2)cccc1-c1nc2cc(CN3CCCC[C@H]3C(=O)O)c(OCC#N)cc2o1 | ≤ 10 |  |
| COc1cc(OC)cc(-c2cccc(-c3nc4c(s3)CNCC4)c2C)c1 | ≤ 100 |  |
| Cc1c(-c2ccccc2)cccc1-c1nc2cc(CNCCO)nc(C)n2n1 | ≤ 100 |  |
| Cc1c(Nc2nccc3c(CNCCO)ccnc23)cccc1-c1ccc2c(c1)OCCO2 | ≤ 10 |  |
| Cc1c(-c2ccccc2)ccnc1-c1nc2c(s1)CN(C1CCC(C(=O)O)CC1)CC2 (configuration not stated) | ≤ 100 |  |
| Cc1c(-c2nc3c(s2)CNCC3)cccc1-c1cccc2c1cnn2C | ≤ 100 |  |
| COc1cccc(-c2cccc(NC(=O)c3nc4c(n3C)CCNC4)c2C#N)c1F | ≤ 100 |  |
| N#Cc1c(-c2ccc3c(c2)OCCO3)cccc1-c1nc2c(s1)CNCC2 | ≤ 100 |  |
| Cc1c(-c2ccccc2)cccc1-c1nc2cc(CNCCO)c(OCc3ccccn3)cc2o1 | ≤ 10 |  |
| Cc1c(-c2ccc3c(c2)OCCO3)cccc1-c1nc2cc(CN3CCCC[C@H]3C(=O)O)c(OCC#N)cc2o1 | ≤ 10 |  |
| Cc1c(-c2ccccc2)cccc1-c1nc2c(s1)CN(C)CC2 | ≤ 100 |  |
| Cc1c(-c2ccccc2)cccc1-c1nc2c(CC#N)cc(CNCCO)cn2n1 | ≤ 100 |  |
| Cc1c(-c2ccccc2)cccc1-c1nc2c(s1)CN(C[C@H](C)O)CC2 | ≤ 100 |  |
| Cc1c(-c2ccccc2)cccc1-c1nc2c(o1)CCN(C)C2 | ≤ 100 |  |
| Cc1cc(CNCCO)cc2nc(-c3cccc(-c4ccccc4)c3C#N)oc12 | ≤ 10 |  |
| Cn1ncc2c(-c3cccc(NC(=O)c4nc5c(s4)CNCC5)c3C#N)cccc21 | ≤ 100 |  |
| COc1cccc(-c2cccc(NC(=O)c3nc4c(s3)CNCC4)c2C#N)c1 | ≤ 100 |  |
| Cc1c(-c2ccccc2)cccc1-c1nc2cc(CNCCO)ccn2n1 | ≤ 100 |  |
| Cc1c(NC(=O)c2nc3c(s2)CN(CCO)CC3)cccc1-c1ccccc1 | ≤ 100 |  |
| N#Cc1c(NC(=O)c2nc3c(s2)CNCC3)cccc1-c1ccccc1Cl | ≤ 100 |  |
| COc1cccc(-c2cccc(NC(=O)c3nc4c(n3C)CCN(CCO)C4)c2C#N)c1F | ≤ 100 |  |
| Cc1c(-c2ccccc2)cccc1-c1nc2c(Cl)cc(CNCCO)cn2n1 | ≤ 100 |  |
